“Also recorded” adds a separate entry of the source. Like-named read-outs stand apart in the source and are kept apart here.
How the values were obtained:
HCVcc [1] = test system: HCVcc; parameters: species or system HCV
Sindbis virus (SINV) = assay type: cell-based
HSV-1 virions = details: 0.2 μM PD, 30 min, 37° C.; 20-70% sucrose gradient
Experimental: FIGS. 16A-16B depict effectiveness of PD against HSV. PD blocks HSV infection. Vero cells were seeded in a 24-well plate and infected with HSV-1 (Syn 17) or HSV-2 (333) (FIG. 16A). PD (200 nM) or control DMSO (0.01%) was added immediately to the target cells after viral inoculation. Two days later, the cells were harvested, stained with antibody against HSV glycoprotein gD and analyzed by flow cytometry. Error bars represent standard deviation of triplicate samples. Results are representative of two independent experiments. PD Destabilizes HSV particles (FIG. 16B). […] The amount of HSV glycoprotein gpB in each fraction was analyzed by ELISA. The sucrose gradient density of each fraction was determined by measuring the refractive index. […]
HSV was concentrated by loading 30 mL HSV-1-infected Vero cell supernatant on a 20% sucrose cushion and centrifuged in a SW28 rotor at 20,000 rpm for 1 h at 4° C. […] After ultracentrifugation at 30,000 rpm for 24 h in a SW-41 T rotor at 4° C., fractions of 1 mL were collected and analyzed for HSV gpB content by enzyme-linked immunosorbent assay (ELISA) using homemade rabbit polyclonal antibody. The density of each fraction from the sucrose gradient was determined by measuring the refractive index.
Applicants also investigated whether PD can disrupt the structure of HSV virions. […] Each gradient fraction was analyzed for HSV glycoprotein gpB by ELISA. […]

Dengue virus (DenV) = experiment: Dengue virus plaque assay on Vero cells; assay type: cell-based, Serotype 2 New Guinea C strain Dengue virus; details: 300 μM PD
primary HIV-1 isolates = experiment: microbe, parasite or virus in culture; assay type: cell-based; details: Human immunodeficiency virus 1, TZM-bl
HCVcc [2] = assay type: cell-based, HCV
[3] = test system: HepG2, HCT-8, Huh-7, Huh-7.5, TZM, PC3 and 293T cells; assay type: cell-based, human
[4] = test system: freshly activated human PBMCs
[5] = test system: primary CD4+ T-lymphocytes, macrophages and dendritic cells; experiment: Primary cells toxicity testing (LDH release); details: up to 14 days
VSV-Gpp [6] = assay type: physicochemical
HCVcc [7] = assay type: cell-based, HCV; remark: listed apart in the source
VSV-Gpp [8] = assay type: physicochemical; details: pH 7
[9] = test system: HIV-1 (X4 NL4.3) particles; details: 10 μM PD, 30 min, 37° C.; 20-70% sucrose gradient
HIV-2 = HIV-2 infectivity assay in TZM-bl cells (β-galactosidase); assay type: cell-based; details: Human immunodeficiency virus 2, TZM-bl, PD in DMEM with 10% fetal bovine serum, IC90 per footnote, read-out: IC50 (the source's name)
HIV-1 (R5 JR-CSF) = experiment: Antiviral effect of PD before, during and after HIV-1 exposure (TZM-bl); assay type: cell-based

N=C1Sc2ccccc2C2=NCCCN12 [PD, PD 404,182]
HCVcc virion lysis (HCVcc [1]): Little to no virion lysis
effect on infectivity of SINV (Sindbis virus (SINV)): no significant inhibitory effect
sedimentation of HSV gpB in sucrose gradient (HSV-1 virions): all gpB distributed to the top of the gradient
effect on infectivity of DenV (Dengue virus (DenV)): no significant inhibitory effect
IC90 (primary HIV-1 isolates; HIV-1 92HT599 (clade B, X4), PD in DMEM with 10% fetal bovine serum, IC90 per footnote): 5.8 µM
IC90 (primary HIV-1 isolates; HIV-1 92HT599 (clade B, X4), PD in cervical fluids, IC90 per footnote): 6.4 µM
IC90 (primary HIV-1 isolates; HIV-1 92HT599 (clade B, X4), PD in seminal plasma, IC90 per footnote): 6.31 µM
IC90 (primary HIV-1 isolates; HIV-1 92RW021 (clade A, R5), PD in DMEM with 10% fetal bovine serum, IC90 per footnote): 3.8 µM
IC90 (primary HIV-1 isolates; HIV-1 92RW021 (clade A, R5), PD in cervical fluids, IC90 per footnote): 4.4 µM
IC90 (primary HIV-1 isolates; HIV-1 92TH003 (clade E, R5), PD in DMEM with 10% fetal bovine serum, IC90 per footnote): 8.6 µM
IC90 (primary HIV-1 isolates; HIV-1 92TH003 (clade E, R5), PD in cervical fluids, IC90 per footnote): 7.8 µM
IC90 (primary HIV-1 isolates; HIV-1 92TH003 (clade E, R5), PD in seminal plasma, IC90 per footnote): 6.73 µM
IC90 (primary HIV-1 isolates; HIV-1 92TH029 (clade B, R5), PD in DMEM with 10% fetal bovine serum, IC90 per footnote): 2.8 µM
IC90 (primary HIV-1 isolates; HIV-1 92TH029 (clade B, R5), PD in cervical fluids, IC90 per footnote): 3.3 µM
IC90 (primary HIV-1 isolates; HIV-1 92TH029 (clade B, R5), PD in seminal plasma, IC90 per footnote): 2.95 µM
IC50 (primary HIV-1 isolates; HIV-1 92UG024 (clade D, X4), PD in DMEM with 10% fetal bovine serum): 0.33 µM
IC90 (primary HIV-1 isolates; HIV-1 92UG024 (clade D, X4), PD in DMEM with 10% fetal bovine serum, IC90 per footnote): 1.4 µM
IC90 (primary HIV-1 isolates; HIV-1 92UG024 (clade D, X4), PD in cervical fluids, IC90 per footnote): 1.8 µM
IC90 (primary HIV-1 isolates; HIV-1 92UG024 (clade D, X4), PD in seminal plasma, IC90 per footnote): 1.68 µM
IC90 (primary HIV-1 isolates; HIV-1 92UG029 (clade A, X4), PD in DMEM with 10% fetal bovine serum, IC90 per footnote): 4.4 µM
IC90 (primary HIV-1 isolates; HIV-1 92UG029 (clade A, X4), PD in cervical fluids, IC90 per footnote): 5.3 µM
IC90 (primary HIV-1 isolates; HIV-1 92UQ085 (clade D, R5), PD in DMEM with 10% fetal bovine serum, IC90 per footnote): 5.3 µM
IC90 (primary HIV-1 isolates; HIV-1 92UQ085 (clade D, R5), PD in cervical fluids, IC90 per footnote): 6.7 µM
IC90 (primary HIV-1 isolates; HIV-1 92UQ085 (clade D, R5), PD in seminal plasma, IC90 per footnote): 6.67 µM
IC90 (primary HIV-1 isolates; HIV-1 93BR020 (clade F, X4), PD in DMEM with 10% fetal bovine serum, IC90 per footnote): 6.8 µM
IC90 (primary HIV-1 isolates; HIV-1 93BR020 (clade F, X4), PD in cervical fluids, IC90 per footnote): 7.6 µM
IC90 (primary HIV-1 isolates; HIV-1 93BR020 (clade F, X4), PD in seminal plasma, IC90 per footnote): 7.19 µM
IC90 (primary HIV-1 isolates; HIV-1 93BR028 (clade F, R5), PD in DMEM with 10% fetal bovine serum, IC90 per footnote): 3.6 µM
IC90 (primary HIV-1 isolates; HIV-1 93BR028 (clade F, R5), PD in cervical fluids, IC90 per footnote): 4.6 µM
IC90 (primary HIV-1 isolates; HIV-1 93BR028 (clade F, R5), PD in seminal plasma, IC90 per footnote): 3.72 µM
IC90 (primary HIV-1 isolates; HIV-1 93IN101 (clade C, R5), PD in DMEM with 10% fetal bovine serum, IC90 per footnote): 5.1 µM
IC90 (primary HIV-1 isolates; HIV-1 93IN101 (clade C, R5), PD in cervical fluids, IC90 per footnote): 5.6 µM
IC90 (primary HIV-1 isolates; HIV-1 93IN101 (clade C, R5), PD in seminal plasma, IC90 per footnote): 5.38 µM
IC90 (primary HIV-1 isolates; HIV-1 93TH083 (clade E, X4), PD in DMEM with 10% fetal bovine serum, IC90 per footnote): 6.3 µM
IC90 (primary HIV-1 isolates; HIV-1 93TH083 (clade E, X4), PD in cervical fluids, IC90 per footnote): 6.4 µM
IC90 (primary HIV-1 isolates; HIV-1 93TH083 (clade E, X4), PD in seminal plasma, IC90 per footnote): 6.66 µM
IC90 (primary HIV-1 isolates; HIV-1 98IN017 (clade C, X4), PD in cervical fluids, IC90 per footnote): 2.4 µM
IC90 (primary HIV-1 isolates; HIV-1 98IN017 (clade C, X4), PD in seminal plasma, IC90 per footnote): 2.09 µM
IC90 (primary HIV-1 isolates; HIV-1 Jv1063 (clade G, R5), PD in DMEM with 10% fetal bovine serum, IC90 per footnote): 3.8 µM
IC50 (primary HIV-1 isolates; HIV-1 RU132 (clade G, R5), PD in DMEM with 10% fetal bovine serum): 0.8 µM
IC90 (primary HIV-1 isolates; HIV-1 RU132 (clade G, R5), PD in DMEM with 10% fetal bovine serum, IC90 per footnote): 3.1 µM
IC90 (primary HIV-1 isolates; HIV-1 RU132 (clade G, R5), PD in cervical fluids, IC90 per footnote): 3.8 µM
IC90 (primary HIV-1 isolates; HIV-1 RU132 (clade G, R5), PD in seminal plasma, IC90 per footnote): 3.26 µM
IC50 (primary HIV-1 isolates; broad range of primary HIV-1 isolates as well as HIV-2): ~1 µM
IC50 (primary HIV-1 isolates; read-out: IC50, range over the tested subtypes of HIV-1, PD in DMEM, TZM-bl): 0.33 to 1.8 µM
IC50 (primary HIV-1 isolates; read-out: IC50, range over the tested subtypes of HIV-1, PD in cervical fluid, TZM-bl): 0.61 to 2.3 µM
IC90 (primary HIV-1 isolates; read-out: IC90, range over the tested subtypes of HIV-1, PD in DMEM, TZM-bl): 1.4 to 6.6 µM
IC90 (primary HIV-1 isolates; read-out: IC90, range over the tested subtypes of HIV-1, PD in cervical fluid, TZM-bl): 1.8 to 7.5 µM
IC50 (primary HIV-1 isolates; several isolates of HIV-1 and SIV in TZM-bl cells, PD diluted in DMEM or cervical fluid): ~1 µM
attachment of PD-treated HCVcc to cells (HCVcc [2]): binds to cells comparably to control DMSO-treated virus; also recorded: slight decrease in attachment
CC50 ([3]; cervical cancer cells): > 300 µM
CC50 ([3]; seven different human cell lines, including TZM-bl (HeLa)): > 300 µM
reduction in cell viability [4]: 48%
CC50 [5]: > 300 µM
antiviral activity lost (VSV-Gpp [6]): no activity loss
stability (VSV-Gpp [6]; pH 4): highly stable
inhibition of virus infectivity (HCVcc [7]): > 10 fold
long-term stability (VSV-Gpp [8]): not stable
sedimentation of HIV-1 capsid and RT in sucrose gradient [9]: viral capsid and RT relocate to the top of the gradient
IC90 (HIV-2; HIV-2OD 0310342): 4.7 µM
IC90 (HIV-2; HIV-27312A): 6.6 µM
effect on HIV-1 infection (HIV-1 (R5 JR-CSF); 10 μM PD added 1, 2, 4 and 8 h after virus inoculation): loses its antiviral effect
effect on HIV-1 infection (HIV-1 (R5 JR-CSF); 10 μM PD added to cells before the virus): retains its full potency up to 8 h before the addition of the virus
effect on HIV-1 infection (HIV-1 (R5 JR-CSF); 10 μM PD added together with the virus (time zero)): significantly inhibits HIV-1 infection
effect on HIV-1 infection (HIV-1 (R5 JR-CSF); extended (>16 h) preincubation of PD with cells prior to virus inoculation): significantly reduces the compound's antiviral efficacy
